Laboratory results taken from patent US20060025390A1, “Treatment of hormone allergy and related symptoms and disorders” (priority 2004, published 2006).

How the values were obtained:
[1] = system: patients experiencing hormone allergy symptoms; assay: Clinical responses of hormone allergy symptoms to intradermal dilute progesterone (or estrogen); assay type: in vivo, human; settings: for % of Patients who Respond: any relief of symptom; for % Improvement in Responding Patients: average of patients' estimates
Source text: Patients experiencing several hormone allergy symptoms experienced relief when administered dilute doses of progesterone either sublingually or intradermally.
The symptoms measured were irritation or pain in the neck, nose, eyes, throat, ear, skin, back, hips, upper extremities and lower extremities, headache, and shortness of breath. […]
Patients were designated as responding patients in Table 1 if they experienced any relief of the indicated symptom. Patients were also asked to estimate the amount of improvement in the symptom, an average of which is
In Table 2 the probability that positive results (i.e. patients responding to treatment) were due to random effects was calculated using standard statistical analysis of patient tests. It was assumed that if the treatment has no effect, there is a 50% chance that a patient will indicate a positive response and a 50% chance that a patient will indicate a negative response. From this assumption, coupled with the actual data, one may calculate the probability that positive responses are due to an actual effect of the treatment and not simply random effects. In general, results with a less than 1% chance of being random are considered highly significant. Results with a less than 5% chance of being random are normally conclusively labeled as nonrandom. Thus, the results observed for most of the symptoms in Table 2 are highly significant, with only the results for ear irritation and pain falling merely in the nonrandom category.
(§1) Hormone samples may be prepared in any way suitable for the intended administration route. For administration through intradermal injection, samples may be prepared as they were in the studies of Examples 2 and 3. Specifically, the progesterone was formulated from commercially available injectable progesterone. Each ml of the final formulation contained […] of progesterone and 10% benzyl alcohol as a preservative in sesame oil. 0.1 ml was administered per patient intradermally. Estrogen samples were similarly prepared.

[2] = system: serum IgE anti-17-α-hydroxyprogesterone antibodies; assay: ELISA binding of IgE 17-α-hydroxyprogesterone antibodies to different hormones in solid phase; parameters: species or system human; settings: for IgE binding (optical density): hormone in solid phase, 405 nm; for IgE % reaction: relative to 17-α-hydroxyprogesterone = 100
Description: The ELISA inhibition method was used to determine specificity and cross-reactivity between different hormones and to ensure the degree of human IgG, IgM and IgE estrogen or progesterone binding to estrogen or progesterone in solid phase. […] 100 μl of sera from three different patients with high IgG, IgM or IgE antibodies against 17-α-hydroxyprogesterone was added to all wells. After shaking and incubation for 1 hr at room temperature, addition of enzyme labeled anti-human IgG, IgM or IgE, repeat of incubation, washing, and addition of substrate, color development was measured at 405 nm. Results were calculated as percentage of anti-17-α-hydroxyprogesterone binding to 17-α-hydroxyprogesterone and other hormones. Also, anti-estrogen binding to estrogen and other hormones in solid phase by progesterone in liquid phase was performed and calculated in a similar manner.
Human sera containing 17-α-hydroxyprogesterone IgG-, IgM- and IgE-binding antibodies were reacted against progesterone, estrogen, hydrocortisone and cholesterol. In comparison to 100% binding of anti-17-α-hydroxyprogesterone-binding to 17-α-hydroxyprogesterone, the IgG anti-17-α-hydroxyprogesterone-binding to progesterone, estrogen, hydrocortisone and cholesterol was 69-77%, 25-30%, 39-53%, and less than 10% respectively (Table 4). The % binding of serum IgM and IgE anti-17-α-hydroxyprogesterone to 17-1-hydroxyprogesterone, progesterone, estrogen, hydrocortisone and cholesterol was similar to the binding of IgG. This binding of anti-17-α-hydroxyprogesterone to progesterone was the highest, followed by hydrocortisone, then estrogen, to almost no binding with cholesterol. Similar to this, human sera with IgG, IgM and IgE binding antibodies against estrogen were reacted with progesterone, 17-α-hydroxyprogesterone, hydrocortisone and cholesterol, in the presence of estrogen.

women with acute asthma = assay: Symptom relief in women with acute asthma after intradermal progesterone (0 to 10 scale); assay type: in vivo, human
Description: To test this hypothesis, 142 women with acute asthma were asked to evaluate the severity of their symptoms using an eleven point scale. Ten was assigned to the most severe symptoms, while 0 was assigned to an absence of symptoms. Immediately after assessing their symptoms on this scale, patents were administered 0.5 mg of progesterone by intradermal injection.
Approximately 15 to 30 seconds after the injection was administered, each patient was asked if their symptoms were worse, better, or unchanged. Each patient was also asked to rate their present symptoms on the same 0 to 10 scale.
Of the 142 patients tested 129 (91%) positively responded to the treatment. Using the random effects calculations described in Example 2, this correlates to a less than 0.1% chance that the results are random. Thus the results may be considered highly significant.
as §1

[3] = Back, of 58 patients with symptom (Table 2)
[4] = Ear, of 35 patients with symptom (Table 2)
[5] = Eyes, of 94 patients with symptom (Table 2)
[6] = Headache, of 105 patients with symptom (Table 2)
[7] = Hips, of 26 patients with symptom (Table 2)
[8] = Lower Extremity, 0.5 mg intradermally
[9] = Lower Extremity, of 51 patients with symptom (Table 2)
[10] = Neck, of 146 patients with symptom (Table 2)
[11] = Nose, of 112 patients with symptom (Table 2)
[12] = Shortness of Breath, 0.5 mg intradermally
[13] = Shortness of Breath, of 144 patients with symptom (Table 2)
[14] = Skin, of 35 patients with symptom (Table 2)
[15] = Throat, of 94 patients with symptom (Table 2)
[16] = Upper Extremity, 0.5 mg intradermally
[17] = Upper Extremity, of 63 patients with symptom (Table 2)
[18] = 0.5 mg intradermal, acute asthma
[19] = of 142 women with acute asthma, 0.5 mg intradermal, 15 to 30 seconds after injection

CC(=O)[C@H]1CC[C@H]2[C@@H]3CCC4=CC(=O)CC[C@]4(C)[C@H]3CC[C@]12C [Progesterone, progesterone]
% of Patients who Respond ([1]; Back, 0.5 mg intradermally): 82%
% Improvement in Responding Patients ([1]; Back, 0.5 mg intradermally): 72%
# of Responding Patients ([1]; Back, 0.5 mg intradermally, of 57 patients (Table 1)): 47
# of Responding Patients [1, 3]: 48
# of non-Responding Patients [1, 3]: 10
% of Patients who Respond ([1]; Ear, 0.5 mg intradermally): 66%
% Improvement in Responding Patients ([1]; Ear, 0.5 mg intradermally): 25%
# of Responding Patients ([1]; Ear, 0.5 mg intradermally, of 35 patients (Table 1)): 23
# of Responding Patients [1, 4]: 23
# of non-Responding Patients [1, 4]: 12
% of Patients who Respond ([1]; Eyes, 0.5 mg intradermally): 81%
% Improvement in Responding Patients ([1]; Eyes, 0.5 mg intradermally): 57%
# of Responding Patients ([1]; Eyes, 0.5 mg intradermally, of 90 patients (Table 1)): 73
# of Responding Patients [1, 5]: 75
# of non-Responding Patients [1, 5]: 19
% of Patients who Respond ([1]; Headache, 0.5 mg intradermally): 82%
% Improvement in Responding Patients ([1]; Headache, 0.5 mg intradermally): 69%
# of Responding Patients ([1]; Headache, 0.5 mg intradermally, of 103 patients (Table 1)): 84
# of Responding Patients [1, 6]: 85
# of non-Responding Patients [1, 6]: 20
% of Patients who Respond ([1]; Hips, 0.5 mg intradermally): 92%
% Improvement in Responding Patients ([1]; Hips, 0.5 mg intradermally): 79%
# of Responding Patients ([1]; Hips, 0.5 mg intradermally, of 26 patients (Table 1)): 24
# of Responding Patients [1, 7]: 24
# of non-Responding Patients [1, 7]: 2
% of Patients who Respond [1, 8]: 79%
% Improvement in Responding Patients [1, 8]: 76%
# of Responding Patients ([1]; Lower Extremity, 0.5 mg intradermally, of 61 patients (Table 1)): 48
# of Responding Patients [1, 9]: 43
# of non-Responding Patients [1, 9]: 8
% of Patients who Respond ([1]; Neck, 0.5 mg intradermally): 72%
% Improvement in Responding Patients ([1]; Neck, 0.5 mg intradermally): 62%
# of Responding Patients ([1]; Neck, 0.5 mg intradermally, of 144 patients (Table 1)): 104
# of Responding Patients [1, 10]: 106
# of non-Responding Patients [1, 10]: 40
% of Patients who Respond ([1]; Nose, 0.5 mg intradermally): 82%
% Improvement in Responding Patients ([1]; Nose, 0.5 mg intradermally): 63%
# of Responding Patients ([1]; Nose, 0.5 mg intradermally, of 109 patients (Table 1)): 89
# of Responding Patients [1, 11]: 92
# of non-Responding Patients [1, 11]: 20
% of Patients who Respond [1, 12]: 87%
% Improvement in Responding Patients [1, 12]: 67%
# of Responding Patients ([1]; Shortness of Breath, 0.5 mg intradermally, of 142 patients (Table 1)): 124
# of Responding Patients [1, 13]: 126
# of non-Responding Patients [1, 13]: 18
% of Patients who Respond ([1]; Skin, 0.5 mg intradermally): 79%
% Improvement in Responding Patients ([1]; Skin, 0.5 mg intradermally): 74%
# of Responding Patients ([1]; Skin, 0.5 mg intradermally, of 34 patients (Table 1)): 27
# of Responding Patients [1, 14]: 27
# of non-Responding Patients [1, 14]: 8
% of Patients who Respond ([1]; Throat, 0.5 mg intradermally): 76%
% Improvement in Responding Patients ([1]; Throat, 0.5 mg intradermally): 64%
# of Responding Patients ([1]; Throat, 0.5 mg intradermally, of 92 patients (Table 1)): 70
# of Responding Patients [1, 15]: 71
# of non-Responding Patients [1, 15]: 23
% of Patients who Respond [1, 16]: 80%
% Improvement in Responding Patients [1, 16]: 75%
# of Responding Patients ([1]; Upper Extremity, 0.5 mg intradermally, of 50 patients (Table 1)): 40
# of Responding Patients [1, 17]: 50
# of non-Responding Patients [1, 17]: 13
effectiveness in relieving hormone allergy symptoms compared to several other antigens ([1]; dilute doses sublingually or intradermally): most effective
IgE binding (optical density) ([2]; sample 1): 0.94
IgE % reaction ([2]; sample 1): −65%
IgE binding (optical density) ([2]; sample 2): 1.7
IgE % reaction ([2]; sample 2): −71%
IgE binding (optical density) ([2]; sample 3): 0.82
IgE % reaction ([2]; sample 3): −77%
average symptomatic relief, patients who reported some response (women with acute asthma; 0 to 10 scale): 5 points
average symptomatic relief, all patients (women with acute asthma; 0 to 10 scale, responding and not responding patients): 3.4 points
average reduction in symptoms relative to maximum individual patient score (women with acute asthma; [18]): 62%
patients reporting 100% relief of asthma symptoms (%) (women with acute asthma; [18]): 28%
patients reporting 100% relief of asthma symptoms (number) (women with acute asthma; [18]): 40
patients who positively responded to the treatment (%) (women with acute asthma; [19]): 91%
patients who positively responded to the treatment (number) (women with acute asthma; [19]): 129
